Assay results taken from the supplement of paper PMC10307832.

Assays:
Assay in all cases: relative viability (nuclei count vs DMSO), 5 days (fraction); higher = more cells survive
BAY61-3606 + Palbociclib = compound: COC1=C(C=C(C=C1)C2=CC3=NC=CN3C(=N2)NC4=C(C=CC=N4)C(=O)N)OC [BAY61-3606] + CC(=O)c1c(C)c2cnc(Nc3ccc(N4CCNCC4)cn3)nc2n(C2CCCC2)c1=O [Palbociclib] (partner 0.5 µM)
How it was run: (§1)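 Values are medians from duplicate plates. Each reflects relative viability, defined as the nuclei count of treated wells over that of vehicle wells. Lung cancer cell lines in 1536-well plates were pin-tool dosed one day after seeding with one drug alone or with a fixed anchor-drug dose plus five library-drug doses (not always all listed) in √10 steps, then fixed, stained and imaged at 4× after 5 days.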

[1] = compound: COc1cccc2c1C(=O)c1c(O)c3c(c(O)c1C2=O)C[C@@](O)(C(=O)CO)C[C@@H]3O[C@H]1C[C@H](N)[C@H](O)[C@H](C)O1 [Doxorubicin] + CC(=O)c1c(C)c2cnc(Nc3ccc(N4CCNCC4)cn3)nc2n(C2CCCC2)c1=O [Palbociclib] (partner 0.5 µM)
How it was run: as §1

BAY61-3606 + Luminespib = compound: COC1=C(C=C(C=C1)C2=CC3=NC=CN3C(=N2)NC4=C(C=CC=N4)C(=O)N)OC [BAY61-3606] + CCNC(=O)c1noc(-c2cc(C(C)C)c(O)cc2O)c1-c1ccc(CN2CCOCC2)cc1 [Luminespib] (partner 0.01 µM)
How it was run: as §1

BAY61-3606 + AZD7762 = compound: COC1=C(C=C(C=C1)C2=CC3=NC=CN3C(=N2)NC4=C(C=CC=N4)C(=O)N)OC [BAY61-3606] + NC(=O)Nc1cc(-c2cccc(F)c2)sc1C(=O)N[C@H]1CCCNC1 [AZD7762] (partner 0.2 µM)
How it was run: as §1

Cell Line	relative viability (BAY61-3606 + Palbociclib; first compound 0.02 µM)	relative viability (BAY61-3606 + Palbociclib; first compound 0.06325 µM)	relative viability (BAY61-3606 + Palbociclib; first compound 0.2 µM)	relative viability (BAY61-3606 + Palbociclib; first compound 0.6325 µM)	relative viability (BAY61-3606 + Palbociclib; first compound 2 µM)	relative viability ([1]; first compound 0.001 µM)	relative viability ([1]; first compound 0.003162 µM)	relative viability ([1]; first compound 0.01 µM)	relative viability ([1]; first compound 0.03162 µM)	relative viability ([1]; first compound 0.1 µM)	relative viability (BAY61-3606 + Luminespib; first compound 0.02 µM)	relative viability (BAY61-3606 + Luminespib; first compound 0.06325 µM)	relative viability (BAY61-3606 + Luminespib; first compound 0.2 µM)	relative viability (BAY61-3606 + Luminespib; first compound 0.6325 µM)	relative viability (BAY61-3606 + Luminespib; first compound 2 µM)	relative viability (BAY61-3606 + AZD7762; first compound 0.02 µM)	relative viability (BAY61-3606 + AZD7762; first compound 0.06325 µM)	relative viability (BAY61-3606 + AZD7762; first compound 0.2 µM)	relative viability (BAY61-3606 + AZD7762; first compound 0.6325 µM)	relative viability (BAY61-3606 + AZD7762; first compound 2 µM)
LCLC-97TM1	0.241	0.222	0.281	0.218	0.301	0.229	0.205	0.222	0.199	0.238	0.793	0.875	0.879	0.794	0.765	0.204	0.326	0.228	0.393	0.345
BEN	0.456	0.438	0.477	0.442	0.509	0.454	0.458	0.46	0.441	0.465	0.464	0.349	0.253	0.321	0.407	0.78	0.637	0.672	0.694	0.808
LCLC-103H	0.473	0.508	0.449	0.462	0.481	0.468	0.508	0.5	0.457	0.41	0.989	1.06	0.969	1.06	0.737	0.762	0.704	0.836	0.758	0.769
NCI-H441	0.249	0.264	0.256	0.231	0.192	0.227	0.217	0.229	0.153	0.195	0.258	0.31	0.369	0.335	0.302	1.21	1.29	1.04	1.3	0.974
ChaGo-K-1	0.934	0.846	0.89	0.916	0.865	0.962	0.912	0.911	0.939	0.974	0.611	0.606	0.587	0.554	0.436	0.943	0.904	0.9	0.847	0.841
NCI-H1993	0.581	0.626	0.48	0.688	0.524	0.492	0.695	0.639	0.625	0.649	0.947	0.736	0.873	0.901	0.527	0.823	0.824	0.614	0.869	0.739
NCI-H23	0.646	0.484	0.549	0.509	0.371	0.503	0.568	0.479	0.428	0.44	0.212	0.213	0.214	0.232	0.207	0.227	0.192	0.251	0.265	0.224
NCI-H2405	0.564	0.517	0.503	0.592	0.494	0.537	0.534	0.51	0.463	0.447	0.736	0.569	0.716	0.739	0.485	0.832	0.658	0.748	0.658	0.496
HCC-44	0.959	0.941	0.924	0.968	1.13	0.99	0.981	1	1.03	0.933	1.1	–	1.17	1.24	0.997	1.01	1.1	0.962	1.01	1.1
EMC-BAC-2	0.516	0.515	0.513	0.587	0.547	0.524	0.465	0.442	0.383	0.403	1.21	1.15	1.17	1.25	0.904	1.12	0.888	1.1	1.32	1.12
NCI-H322M	0.522	0.47	0.511	0.49	0.447	0.548	0.482	0.486	0.465	0.465	0.879	0.806	0.818	0.819	0.742	0.528	0.525	0.579	0.522	0.571
NCI-H2170	0.338	0.404	0.425	0.412	0.306	0.409	0.389	0.386	0.313	0.447	0.796	0.717	0.761	0.852	0.506	0.895	0.913	0.885	0.85	0.585
EPLC-272H	0.322	0.338	0.373	0.352	0.318	0.279	0.28	0.301	0.328	0.29	0.33	0.424	0.801	0.131	0.138	0.223	0.193	0.313	0.186	0.173
NCI-H1975	0.616	0.628	0.526	0.504	0.347	0.413	0.568	0.501	0.383	0.324	0.18	0.199	0.268	0.247	0.119	0.706	0.603	0.621	0.654	0.348
NCI-H727	0.737	0.588	0.637	0.635	0.631	0.655	0.661	–	0.577	0.62	0.334	0.364	0.266	0.328	0.331	0.747	0.509	0.577	0.75	0.734
